Assays:
[1] = cited from earlier work
[2] = Fraction unbound in hepatocytes, Rapid Equilibrium Dialysis (RED) device; type: in vitro ADME; settings: human, heat inactivated hepatocytes, RED device
Method: Fraction Unbound in Hepatocytes. The estimation of the fraction unbound in hepatocytes at equilibrium can be obtained using multiple techniques: heat inactivated hepatocytes (3); linear regression obtained using the logD7.4 (4); parameter estimation (1, 3, 5, 6) or as separate binding rate constants determined experimentally (7). […] The RED device works with low volumes across a medium chamber (500 µL, white) and incubation chamber containing the hepatocytes (300 µL, red), and as such has been reported to even out the non-specific binding (NSB) between the membrane and wells, thereby improving recovery (8). The free fraction in the incubation (fu.inc) is calculated as:
fu.inc= [medium chamber] Whiteincubation chamber(Red) . (Eq.S1)
The amount of non-specific binding (NSB) to the labware is important to understand the recovery from the RED device experiment to evaluate the reliability of fu.inc: […]

[3] = test system: human hepatocytes; assay: Uptake of pitavastatin and eltrombopag in cryopreserved human hepatocytes (oil spin method), comeasurement, micro‐rate constant mechanistic model; type: in vitro ADME
Method: Human hepatocytes were obtained from BioIVT (Brussels, Belgium; lot number: LYB; 10 donor LiverPool (8 Caucasians, 1 African American, and 1 Hispanic) and thawed according to supplier guidelines in Leibovitz L15 medium. Hepatocytes were kept on ice prior to use and were used within 3 hours of defrosting.
Cells were separated using an oil spin method similar to the literature. ^11 , ^17 After separation, the tubes were frozen on dry ice and the bottom layer was cut off.
A dilution factor of 100 was used to scale from pmol/mL/1 × 10^5 cells to nmol/mL/1 × 10^6 cells.
Passive rate constants for movement into and out of the cell (k f.X and k bX, respectively) as well as uptake transporter‐mediated rate constants for association to the transporter (k aX) and dissociation (k dX) and translocation (k tX) from the transporter into the medium and cell, respectively. […] The sets of ODEs for all the models (models 1–4; Table 1 ) tested for structural identifiability and used for parameter estimation are included in the Supplemental Material .
Parameter estimation was conducted within Monolix 2018 R2 (Lixoft, Antony, France) for each concentration and experiment as an individual data set, where to ensure positivity, a log‐normal distribution was assumed for each parameter, with a proportional residual error model for the observations.
Hepatocyte Incubations. […] Eltrombopag was dissolved in DMSO to give 30 µmol/mL, then diluted 333-fold to 90 nmol/mL in Leibovitz L15 medium. […] Briefly, 0.5 mL microtubes (12049877, Thermo-Fisher Scientific, Gothenburg, Sweden) layered with 15 µL of 4 % cesium chloride onto which 140 µL of 8:2 silicone oil: mineral oil, with oil red O was added. Samples were taken by transferring 100 µL of hepatocyte suspension into the microtube and spun for 15 s in a Minispin centrifuge (Eppendorf, Horsholm, Denmark), during which time the hepatocytes passed through the oil into the cesium chloride bottom layer. The tubes were then frozen on dry ice and the bottom layer cut off once frozen into a 1 mL deep well plate (260252, Thermo-Fisher Scientific, Gothenburg, Sweden).
Sample Extraction. 50 µL of water suitable for UPLC (MilliQ ELGA water, Merck-Millipore, Solna, Sweden) and 150 µL of stop solution (50:50 MeOH:MeCN, containing 0.8 % formic acid and 4 pmol/mL 5,5-diethyl-1,3-diphenyl-2-iminobarbituric acid as internal standard) were added to the frozen samples of the cut-off tube bottoms. Samples were mixed on a plate shaker for 1 h and then stored at – 80 °C overnight. Prior to analysis, samples were defrosted and mixed for 30 min before centrifugation of the plates at 4000 g for 20 min at 4 °C. Samples were transferred to a conical bottomed 96 well plate for analysis (249944, Thermo-Fisher Scientific, Gothenburg, Sweden) and diluted 1:1 with MilliQ ELGA water.
Mechanistic Modeling. […] An estimate for the total amount of transporters (To) can be obtained during the mechanistic modeling process (9, 10), and therefore Tf can be replaced using the conservation law during parameter estimation:
Parameter estimation for all model were conducted within the Monolix suite 2018 R2 (Lixoft, Antony, France) where to ensure positivity, a log-normal distribution was assumed for each parameter in the candidate models, together with a proportional residual error model for the observations.

[4] = eltrombopag only, single 75 mg, plasma

fraction unbound ([2]; overnight, pitavastatin 0.3, 10 and 100 nmol/ml, eltrombopag 30 nmol/ml, read-out: f u.inc, fraction unbound in the incubation): 0.04 | recovery ([2]; read-out: analytical recovery): 10% | F T.X, fraction transported ([3]; CLup.X/(CLup.X+Pdif.X), Eq. 4): 0.12 (0.09–0.2) | DV = amount of measured pitavastatin and/or eltrombopag ([3]; ID 29, pitavastatin AMT 10 nmol at TIME 15, TIME 15.5 min (normalised to post eltrombopag incubation)): 1035.93 nmol | DV = amount of measured pitavastatin and/or eltrombopag ([3]; ID 29, pitavastatin AMT 10 nmol at TIME 15, TIME 16 min): 1126.83 nmol | DV = amount of measured pitavastatin and/or eltrombopag ([3]; ID 29, pitavastatin AMT 10 nmol at TIME 15, TIME 17 min): 1088.94 nmol | DV = amount of measured pitavastatin and/or eltrombopag ([3]; ID 29, pitavastatin AMT 10 nmol at TIME 15, TIME 20 min): 1007.88 nmol | DV = amount of measured pitavastatin and/or eltrombopag ([3]; ID 29, pitavastatin AMT 10 nmol at TIME 15, TIME 25 min): 1166.93 nmol | DV = amount of measured pitavastatin and/or eltrombopag ([3]; ID 29, pitavastatin AMT 10 nmol at TIME 15, TIME 45 min): 1002.58 nmol | DV = amount of measured pitavastatin and/or eltrombopag ([3]; ID 30, pitavastatin AMT 10 nmol at TIME 15, TIME 15.25 min): 729.81 nmol | DV = amount of measured pitavastatin and/or eltrombopag ([3]; ID 30, pitavastatin AMT 10 nmol at TIME 15, TIME 15.5 min): 682.02 nmol | DV = amount of measured pitavastatin and/or eltrombopag ([3]; ID 30, pitavastatin AMT 10 nmol at TIME 15, TIME 16 min): 633.62 nmol | DV = amount of measured pitavastatin and/or eltrombopag ([3]; ID 30, pitavastatin AMT 10 nmol at TIME 15, TIME 17 min): 618.74 nmol | DV = amount of measured pitavastatin and/or eltrombopag ([3]; ID 30, pitavastatin AMT 10 nmol at TIME 15, TIME 20 min): 608.21 nmol | DV = amount of measured pitavastatin and/or eltrombopag ([3]; ID 30, pitavastatin AMT 10 nmol at TIME 15, TIME 25 min): 683.69 nmol | DV = amount of measured pitavastatin and/or eltrombopag ([3]; ID 30, pitavastatin AMT 10 nmol at TIME 15, TIME 45 min): 599.94 nmol | DV = amount of measured pitavastatin and/or eltrombopag ([3]; ID 31, pitavastatin AMT 30 nmol at TIME 15, TIME 15.25 min): 1382.52 nmol | DV = amount of measured pitavastatin and/or eltrombopag ([3]; ID 31, pitavastatin AMT 30 nmol at TIME 15, TIME 15.5 min): 1329.86 nmol | DV = amount of measured pitavastatin and/or eltrombopag ([3]; ID 31, pitavastatin AMT 30 nmol at TIME 15, TIME 16 min): 1156.33 nmol | DV = amount of measured pitavastatin and/or eltrombopag ([3]; ID 31, pitavastatin AMT 30 nmol at TIME 15, TIME 17 min): 1204.59 nmol | DV = amount of measured pitavastatin and/or eltrombopag ([3]; ID 31, pitavastatin AMT 30 nmol at TIME 15, TIME 20 min): 1196.1 nmol | DV = amount of measured pitavastatin and/or eltrombopag ([3]; ID 31, pitavastatin AMT 30 nmol at TIME 15, TIME 25 min): 890.75 nmol | DV = amount of measured pitavastatin and/or eltrombopag ([3]; ID 31, pitavastatin AMT 30 nmol at TIME 15, TIME 45 min): 983.35 nmol | DV = amount of measured pitavastatin and/or eltrombopag ([3]; ID 32, pitavastatin AMT 30 nmol at TIME 15, TIME 15.25 min): 1189.57 nmol | DV = amount of measured pitavastatin and/or eltrombopag ([3]; ID 32, pitavastatin AMT 30 nmol at TIME 15, TIME 15.5 min): 1153.93 nmol | DV = amount of measured pitavastatin and/or eltrombopag ([3]; ID 32, pitavastatin AMT 30 nmol at TIME 15, TIME 16 min): 1218.64 nmol | DV = amount of measured pitavastatin and/or eltrombopag ([3]; ID 32, pitavastatin AMT 30 nmol at TIME 15, TIME 17 min): 1146.32 nmol | DV = amount of measured pitavastatin and/or eltrombopag ([3]; ID 32, pitavastatin AMT 30 nmol at TIME 15, TIME 20 min): 1061.43 nmol
Structure (SMILES): CC1=NN(c2ccc(C)c(C)c2)C(=O)/C1=N\Nc1cccc(-c2cccc(C(=O)O)c2)c1O [eltrombopag, Eltrombopag]
AUC0−∞ (literature) [1, 4]: 145 (101–208) h•µg/mL | tmax (h) [1, 4]: 2.5 (2–4) h | Cmax ([1]; eltrombopag only, single 75 mg, plasma, mean (95% CI)): 10.9 (8.7–13.6) µg/mL | K a, absorption rate constant ([1]; eltrombopag, used for I in.max): 0.0084 min⁻¹ | F a F g, fraction absorbed multiplied by the intestinal availability ([1]; eltrombopag): 0.5 | parent in urine ([1]; eltrombopag): 0 parent in urine [ ^25 ] | V c.X, volume of the central compartment / volume of distribution ([1]; eltrombopag, plasma): 2940 [ ^5 ] mL | effect on transporter‐mediated uptake of pitavastatin ([3]; 30 nmol/mL eltrombopag, 15 minute preincubation, overcome at 10–100 nmol/mL pitavastatin): reduced
